Measured values as given in PubChem BioAssay (NCI).
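Dose response: 5 concentrations. Exposure: 48 h. Format: 96-well plates. Endpoint: linear interpolation; highest concentration if not reached. The concentration for 50% growth inhibition is given as GI50. TGI denotes the concentration required for complete inhibition of growth.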

What was measured:
Assay in all cases: growth of human tumour cells (NCI), 48 h
[1] = system: SF-268 CNS
[2] = system: CCRF-CEM leukemia
[3] = system: SK-MEL-2 melanoma
[4] = system: T-47D breast
[5] = system: KM12 colon
[6] = system: NCI-H460 lung
[7] = system: U251 CNS
[8] = system: HL-60(TB) leukemia
[9] = system: SF-295 CNS
[10] = system: TK-10 renal

CCC1(CC)C(=O)CC[C@@]2(C)C1=CC[C@H]1[C@@H]3CC[C@H](O)[C@@]3(C)CC[C@@H]12
TGI [1]: 99.2 µM
TGI [2]: 45.7 µM
TGI [3]: > 100 µM
TGI [4]: 99.7 µM
TGI [5]: > 100 µM
TGI [6]: 32.2 µM
TGI [7]: 33.9 µM
TGI [8]: 46.4 µM
TGI [9]: 62.1 µM
TGI [10]: 41.9 µM

Cc1cc2ccccc2n1CC(=O)NCC(C)C
TGI [1]: > 100 µM
TGI [2]: > 100 µM
TGI [3]: > 100 µM
TGI [4]: > 100 µM
TGI [5]: > 100 µM
TGI [6]: > 100 µM
TGI [7]: > 100 µM
TGI [8]: > 100 µM
TGI [9]: > 100 µM
TGI [10]: > 100 µM

O=C(O)/C=C(/CC(=O)O)C(=O)O
TGI [1]: 40 µM
TGI [2]: 37.2 µM
TGI [3]: 41.9 µM
TGI [4]: 48.1 µM
TGI [5]: 61.2 µM
TGI [6]: > 100 µM
TGI [7]: 41.2 µM
TGI [8]: 42.9 µM
TGI [9]: 37.8 µM
TGI [10]: 54.6 µM

CCOC(=O)c1ccc(C(=O)C(C(C)=O)C(=O)OC(C)(C)C)n1C (stereo unspecified)
TGI [1]: > 100 µM
TGI [2]: > 100 µM
TGI [3]: > 100 µM
TGI [4]: > 100 µM
TGI [5]: > 100 µM
TGI [6]: > 100 µM
TGI [7]: > 100 µM
TGI [8]: > 100 µM
TGI [9]: > 100 µM
TGI [10]: > 100 µM

C/C(=N\NC(N)=O)C(CN1CCCCC1)C(c1ccccc1)c1c(O)c2ccccc2oc1=O (stereo unspecified)
TGI [1]: > 100 µM
TGI [2]: > 100 µM
TGI [3]: > 100 µM
GI50 [4]: > 100 µM
TGI [4]: > 100 µM
TGI [5]: > 100 µM
TGI [6]: > 100 µM
TGI [7]: > 100 µM
TGI [8]: > 72.9 µM
TGI [9]: > 100 µM
TGI [10]: > 100 µM

C#CCNC(Cc1cnc[nH]1)C(=O)O (stereo unspecified)
TGI [1]: > 100 µM
TGI [2]: > 100 µM
TGI [3]: > 100 µM
TGI [4]: > 100 µM
TGI [5]: > 100 µM
TGI [6]: > 100 µM
TGI [7]: > 100 µM
TGI [8]: > 100 µM
TGI [9]: > 100 µM
TGI [10]: > 100 µM

CC(=O)O[C@H]1C#C/C=C\C#CC[C@@H]2C(=O)N(C(=O)OC(C)(C)C)[C@@H]12
TGI [1]: > 75.2 µM
TGI [2]: 6.77 µM
TGI [3]: > 93 µM
TGI [4]: 88.6 µM
TGI [5]: > 86.7 µM
TGI [6]: 38.7 µM
TGI [7]: > 78.9 µM
TGI [8]: 25.6 µM
TGI [9]: > 100 µM
TGI [10]: > 100 µM

O=C1/C(=C/c2ccccc2)CCc2ccc(Cl)nc21
TGI [1]: > 64.8 µM
TGI [2]: 5.75 µM
TGI [3]: 37.8 µM
TGI [4]: 18.6 µM
TGI [5]: 7.15 µM
TGI [6]: > 64 µM
TGI [7]: 16 µM
TGI [8]: 0.705 µM
TGI [9]: 38.2 µM
TGI [10]: 32.7 µM

N#CC1=C(N)C(C#N)(C#N)C(c2ccc(F)cc2)C=C1C1CC1 (stereo unspecified)
TGI [1]: 16 µM
TGI [2]: 31.7 µM
TGI [3]: 19.4 µM
TGI [4]: 29 µM
TGI [5]: 16 µM
TGI [6]: 17.6 µM
TGI [7]: 18.2 µM
TGI [8]: 34.8 µM
TGI [9]: 25.8 µM
TGI [10]: 44 µM

OC1CCCC1C(O)(C(F)(F)F)C(F)(F)F (stereo unspecified)
TGI [1]: > 100 µM
TGI [2]: > 100 µM
TGI [3]: > 100 µM
TGI [4]: > 100 µM
TGI [5]: > 100 µM
TGI [6]: > 100 µM
TGI [7]: > 100 µM
TGI [8]: > 100 µM
TGI [9]: > 100 µM
TGI [10]: > 100 µM

CC(=O)/C=C/C=C(\C)CC/C=C(\C)CC(C)C
TGI [1]: > 100 µM
TGI [2]: 37 µM
TGI [3]: 42.3 µM
TGI [4]: 46 µM
TGI [5]: 95.3 µM
TGI [6]: > 100 µM
TGI [7]: 87.7 µM
TGI [8]: 33.4 µM
TGI [9]: > 100 µM
TGI [10]: > 100 µM

Cc1ccc(S(=O)(=O)n2cncc2CO)cc1
TGI [1]: > 100 µM
TGI [2]: > 100 µM
TGI [3]: > 100 µM
TGI [4]: > 100 µM
TGI [5]: > 100 µM
TGI [6]: > 100 µM
TGI [7]: > 100 µM
TGI [8]: > 100 µM
TGI [9]: > 100 µM
TGI [10]: > 100 µM

OCC1OC(n2cnc3cccnc32)CC1O (stereo unspecified)
TGI [1]: > 100 µM
TGI [2]: > 100 µM
TGI [3]: > 100 µM
TGI [4]: > 100 µM
TGI [5]: > 100 µM
TGI [6]: > 100 µM
TGI [7]: > 100 µM
TGI [8]: > 100 µM
TGI [9]: > 100 µM
TGI [10]: > 100 µM

C=CCC(CNC(=O)OCc1ccccc1)O[Si](C)(C)C(C)(C)C (stereo unspecified)
TGI [1]: > 100 µM
TGI [2]: > 100 µM
TGI [3]: 34.9 µM
TGI [4]: > 100 µM
TGI [5]: > 100 µM
TGI [6]: > 100 µM
TGI [7]: 79.5 µM
TGI [8]: 51.9 µM
TGI [9]: > 100 µM
TGI [10]: > 100 µM

Cc1csc2c1C(=O)c1ccsc1C2=O
TGI [1]: 12.1 µM
TGI [2]: > 100 µM
TGI [3]: 4.51 µM
TGI [4]: 4.99 µM
TGI [5]: 11 µM
TGI [6]: 3.46 µM
TGI [7]: 13.6 µM
TGI [8]: > 30.1 µM
TGI [9]: 2.99 µM
TGI [10]: 35.2 µM

O=C(C1=C(C(=O)c2ccccc2)SC2(S1)C(C(=O)c1ccccc1)=C(C(=O)c1ccccc1)Sc1c2ssc1=O)c1ccccc1
TGI [1]: > 100 µM
TGI [2]: > 100 µM
TGI [3]: > 100 µM
TGI [4]: > 100 µM
TGI [5]: 92.7 µM
TGI [6]: > 100 µM
TGI [7]: > 100 µM
TGI [8]: 69.8 µM
TGI [9]: > 100 µM
TGI [10]: > 100 µM

CC(=O)N(CN1C(=O)CCC1C(=O)O)c1ccccc1 (stereo unspecified)
TGI [1]: > 100 µM
TGI [2]: > 100 µM
TGI [3]: > 100 µM
TGI [4]: > 100 µM
TGI [5]: > 100 µM
TGI [6]: > 100 µM
TGI [7]: > 100 µM
TGI [8]: > 100 µM
TGI [9]: > 100 µM
TGI [10]: > 100 µM

CCCCC[C@@H]1OCO[C@@]2(C)/C=C(C)/C=C/C(=O)O[C@H]([C@@H](C)[C@@H](O)[C@H](C)[C@@]3(O)C[C@@H](O[C@H]4C[C@@H](O)[C@H](O)[C@@H](C)O4)[C@H](C)[C@@H](C)O3)[C@@H](OC)/C=C/C=C(\C)C[C@@H]1[C@@H]2O (stereo in doubt)
TGI [1]: 7.77 µM
TGI [2]: 0.455 µM
TGI [3]: < 0.005 µM
TGI [4]: 9.09 µM
TGI [5]: 5.36 µM
TGI [6]: 5.3 µM
TGI [7]: 5.36 µM
TGI [8]: 0.0587 µM
TGI [9]: 0.0563 µM
TGI [10]: 8.83 µM

CCOC(=O)c1nc2c3c(ncn2n1)Oc1c(c(-c2ccccc2)nn1-c1ccccc1)C3c1ccc(Cl)cc1 (stereo unspecified)
TGI [1]: > 100 µM
TGI [2]: > 100 µM
TGI [3]: > 100 µM
TGI [4]: > 100 µM
TGI [5]: > 100 µM
TGI [6]: > 100 µM
TGI [7]: > 100 µM
TGI [8]: > 100 µM
TGI [9]: > 100 µM
TGI [10]: > 100 µM

O=C(CC(O)(C(F)(F)F)C(F)(F)F)C(CCCl)C(O)(C(F)(F)F)C(F)(F)F (stereo unspecified)
TGI [1]: > 100 µM
TGI [2]: > 100 µM
TGI [3]: > 100 µM
TGI [4]: 78 µM
TGI [5]: > 100 µM
TGI [6]: 88.6 µM
TGI [7]: > 100 µM
TGI [8]: 86.5 µM
TGI [9]: > 100 µM
TGI [10]: > 100 µM

C/C(=C/CO[Si](C)(C)C(C)(C)C)C(=O)N(C)c1ccccc1I
TGI [1]: 33.4 µM
TGI [2]: 43 µM
TGI [3]: 30.5 µM
TGI [4]: 35.9 µM
TGI [5]: 33.6 µM
TGI [6]: 30 µM
TGI [7]: 28.6 µM
TGI [8]: 32 µM
TGI [9]: 31.5 µM
TGI [10]: 33.3 µM
